What follows are molecules tested against T1, human A1 adenosine receptor (Homo sapiens, UniProt P30542) (assay: receptor binding, A1 adenosine receptor (analogously to Ensinger et al.)). Settings: Table Ia.
T1 sequence (P30542 1-326): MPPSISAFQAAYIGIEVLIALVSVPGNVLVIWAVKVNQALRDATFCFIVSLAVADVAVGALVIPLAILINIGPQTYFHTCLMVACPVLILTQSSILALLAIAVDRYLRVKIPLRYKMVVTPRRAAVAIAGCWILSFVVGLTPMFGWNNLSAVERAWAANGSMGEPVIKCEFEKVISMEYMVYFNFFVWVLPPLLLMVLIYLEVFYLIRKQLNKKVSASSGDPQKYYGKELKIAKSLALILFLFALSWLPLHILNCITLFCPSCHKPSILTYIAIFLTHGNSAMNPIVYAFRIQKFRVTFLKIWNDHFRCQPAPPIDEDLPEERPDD
Protocol: The receptor binding values were determined analogously to Ensinger et al. in "Cloning and functional characterisation of human A1 adenosine receptor--Biochemical and Biophysical Communications, Vol 187, No. 2, 919-926, 1992".
In the case of CCCn1c(=O)c2[nH]c(C3CCCC3)nc2n(CCCOC(C)=O)c1=O [Example 08, 8-cyclopentyl-3-(3-acetoxypropyl)-1-propylxanthine], the Ki is reported as 3.5 nM. CCCn1c(=O)c2[nH]c(C3CCCC3)nc2n(CCCC(N)=O)c1=O [Example 60, 3-(3-(aminocarbonyl)-propyl)-8-cyclopentyl-1-propylxanthine] was tested, and the Ki was 3.8 nM. CCCn1c(=O)c2[nH]c(C3CCCC3)nc2n(CCS(=O)(=O)CCO)c1=O [Example 70, 8-cyclopentyl-3-(2-(2-hydroxyethyl)-sulphonylethyl)-1-propyl-xanthine] showed a Ki of 6.2 nM. Work on CCCn1c(=O)c2[nH]c(C3CCCC3)nc2n(CCC(=O)OC)c1=O [Example 10, 8-cyclopentyl-3-(2-methoxycarbonylethyl)-1-propylxanthine] yielded a Ki of 3.1 nM. CCCn1c(=O)c2[nH]c(C3CCCC3)nc2n(CCc2ccncc2)c1=O [Example 59] was tested, and the Ki was 2 nM. Work on CCCn1c(=O)c2[nH]c(C3CCCC3)nc2n(CC=NO)c1=O [Example 17, 8-cyclopentyl-3-hydroximinoethyl-1-propylxanthine] yielded a Ki of 3.8 nM. In the case of CCCn1c(=O)c2[nH]c(C3CCCC3)nc2n(CCCN2CCOCC2)c1=O [Example 19, 8-cyc lopentyl-3-(3-(N-morpholino)-propyl)-1-propylxanthine], the Ki is reported as 11.5 nM. For CCCn1c(=O)c2[nH]c(C3CCCC3)nc2n(CCC(C)O)c1=O (stereo not shown) [Example 15, 8-cyclopentyl-3-(3-hydroxybutyl)-1-propylxanthine], the Ki was 6.4 nM. Work on CCCn1c(=O)c2[nH]c(C3CCCC3)nc2n(CCC(=O)N2CCOCC2)c1=O [Example 14, 8-cyclopentyl-3-(2-(N-morpholinocarbonyl)-ethyl)-1-propylxanthine] yielded a Ki of 36.4 nM. Molecule CCCn1c(=O)c2[nH]c(C3CCCC3)nc2n(CCCOC)c1=O [Example 04, 8-cyclopentyl-3-(3-methoxypropyl)-1-propylxanthine] has a Ki of 8 nM. CCCn1c(=O)c2[nH]c(C3CCCC3)nc2n(CCCC#N)c1=O [Example 01, 3-(3-cyanopropyl)-8-cyclopentyl-1-propylxanthine] gave a Ki of 7.5 nM. With CCCn1c(=O)c2[nH]c(C3CCCC3)nc2n(CCc2ccc(O)cc2)c1=O [Example 24, 8-cyclopentyl-3-(2-(p-hydroxyphenyl)-ethyl)-1-propylxanthine] the Ki was 1.7 nM. Molecule CCCn1c(=O)c2[nH]c(C3CCCC3)nc2n(CCOC(C)=O)c1=O [Example 07, 8-cyclopentyl-3-(2-(methylcarbonyloxy)-ethyl)-1-propylxanthine] has a Ki of 2.7 nM. For CCCn1c(=O)c2[nH]c(C3CCCC3)nc2n(CCCc2ccc(OCC(=O)OCC)cc2)c1=O [Example 31, 8-cyclopentyl-3-(3-(p-(ethoxycarbonylmethyloxy)-phenyl)-propyl)-1-propylxanthine], the Ki was 9.1 nM. Work on CCCn1c(=O)c2[nH]c(C3CCCC3)nc2n(CCN2CCSCC2)c1=O [Example 68] yielded a Ki of 32.6 nM. CCCn1c(=O)c2[nH]c(C3CCCC3)nc2n(CCc2ccc(OC(C)=O)cc2)c1=O [Example 28, 8-cyclopentyl-3-(2-(p-(methylcarbonyloxy)-phenyl)-ethyl)-1-propylxanthine] gave a Ki of 29.3 nM. Work on CCCn1c(=O)c2[nH]c(C3CCCC3)nc2n(CCCc2cccnc2)c1=O [Example 52] yielded a Ki of 5 nM. In the case of CCCn1c(=O)c2[nH]c(C3CCCC3)nc2n(CCC(N)=O)c1=O [Example 11, 3-(2-carbamoylethyl)-8-cyclopentyl-1-propylxanthine], the Ki is reported as 4 nM. Work on CCCn1c(=O)c2[nH]c(C3CCCC3)nc2n(CCSCCO)c1=O [Example 47, 8-cyclopentyl-3-(2-(2-hydroxyethyl)-thioethyl)-1-propylxanthine] yielded a Ki of 2.1 nM. In the case of CCCn1c(=O)c2[nH]c(C3CCCC3)nc2n(CCCO)c1=O [Example 06, 8-cyclopentyl-3-(3-hydroxypropyl)-1-propylxanthine], the Ki is reported as 66.8 nM. For CCCn1c(=O)c2[nH]c(C3CCCC3)nc2n(CCO)c1=O [Example 05, 8-cyclopentyl-3-(2-hydroxyethyl)-1-propylxanthine], the Ki was 46.7 nM.

These molecules were tested on CF PAC cells (assay: efflux of chloride ions in CF PAC cells (preliminary investigations)). Settings: activity of A1-antagonists in CF PAC cells.
Assay type: cell-based, human (patients suffering from cystic fibrosis)
From the text: Cystic fibrosis--also known as mucoviscidosis--is a hereditary disorder caused by a genetic defect on a certain chromosome. Only homozygotic carriers of the feature succumb to the disease. The genetic defects leads to the .dysfunction of exocrine glands. As a result of increased production and greater viscosity of the secretions of the mucous glands in the bronchi, severe complications may arise in the respiratory tract. Preliminary investigations have shown that A1 -antagonists increase the efflux of chloride ions, e.g..in CF PAC cells. The cells come from a pancreas adenocarcinoma cell line which was isolated from patients suffering from cystic fibrosis (CF).
With Nc1nc(Cl)nc2c1ncn2[C@@H]1O[C@H](CO)[C@@H](O)[C@H]1O [2-chloroadenosine] the “blockade of the chloride efflux activity by agonists” value was “successfully blocked”.
